{"source": "paper doi:10.1101/2022.10.18.512764v1", "about": "(bioRxiv, 2022)", "key": {"HeLa [1]": {"tested_on": "HeLa", "test": "TMR-TAT endocytic uptake measured by flow cytometry", "format": "cell-based"}, "HeLa [2]": {"tested_on": "HeLa", "test": "Quantification of TMR-TAT puncta by 100x fluorescence microscopy", "format": "cell-based", "conditions": "TMR-TAT 5 µM, 1 h, 100x deconvoluted images, individual puncta"}}, "data": [{"sequence": "RKKQRRRG [TMR-TAT]", "values": [{"measurement": "Effect of cell aging on endocytosis", "setting": "HeLa [1]; HeLa cultured 2, 10, 25 days, TMR-TAT 5 µM, 1 h, Fig S1", "value": "no effect"}, {"measurement": "Difference in uptake between growth in LG-DMEM and HG-DMEM, incubation in L-15", "setting": "HeLa [1]; HeLa grown 24 h, TMR-TAT 5 µM 1 h in L-15, Fig 3B", "value": "not detectable"}, {"measurement": "Rate of TMR-TAT uptake at 25°C as percentage of that at 37°C", "setting": "HeLa [1]; HeLa, TMR-TAT 5 µM in L-15, 5-60 min", "value": "approximately 50%"}, {"measurement": "Uptake less at 25°C than at 37°C, fold", "setting": "HeLa [1]; HeLa, TMR-TAT 5 µM in L-15, 60 min incubation time point, Fig 4", "value": 1.9, "unit": "fold"}, {"measurement": "Effect of removing glucose from DMEM during incubation on uptake", "setting": "HeLa [1]; HeLa, TMR-TAT 5 µM, 1 h, DMEM 0 vs 25 mM glucose, Fig 3C", "value": "reduction"}, {"measurement": "Effect of adding glucose to L15 on uptake", "setting": "HeLa [1]; HeLa, TMR-TAT 5 µM, 1 h, L15 25 vs 0 mM glucose (5 mM galactose), Fig 3C", "value": "increased"}, {"measurement": "Effect of 0 wash on uptake", "setting": "HeLa [1]; HeLa, TMR-TAT 5 µM, 1 h, possibly because of unwashed BSA, Fig S4", "value": "uptake is inhibited"}, {"measurement": "Difference between MUP and HUP, fold MFI change", "setting": "HeLa [1]; HeLa, TMR-TAT 5 µM, 1 h, discussion", "value": 2.3, "unit": "fold"}, {"measurement": "Fold increase in uptake, HUP compared to LUP", "setting": "HeLa [1]; HeLa, TMR-TAT 5 µM, 1 h, using a median of 0.8 × 10^3 for untreated cells", "value": 13, "unit": "fold"}, {"measurement": "Endocytosis higher in DMEM (serum free) than in L-15, factor", "setting": "HeLa [1]; HeLa, TMR-TAT 5 µM, 1 h incubation, Fig 3A", "value": 1.4, "unit": "fold"}, {"measurement": "Average pixel intensity of puncta, HUP versus MUP", "setting": "HeLa [2]", "value": "not statistically different"}]}]}
